PMC4979471 (Cell Death Discovery, 2015)
Where two headings read alike, the source gives them in different places.

Assays:
Experiment in all cases: Kinase selectivity, P33-radiolabeled assay
Assay type in all cases: biochemical
Conditions in all cases: 10 μM ATP
PKN3/PRK3 = biological target: T1, PKN3/PRK3 (Homo sapiens, UniProt Q6P5Z2)
T1 construct: purchased Reaction Biology Corp
In short: (§1)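 ATP at 10 μM; test article at 10 μM, single point, two replicates. Output is activity as % of DMSO.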

LATS2 = biological target: T2, LATS2 (Homo sapiens, UniProt Q9NRM7)
T2 construct: purchased Reaction Biology Corp
T2 sequence (Q9NRM7 1-1088): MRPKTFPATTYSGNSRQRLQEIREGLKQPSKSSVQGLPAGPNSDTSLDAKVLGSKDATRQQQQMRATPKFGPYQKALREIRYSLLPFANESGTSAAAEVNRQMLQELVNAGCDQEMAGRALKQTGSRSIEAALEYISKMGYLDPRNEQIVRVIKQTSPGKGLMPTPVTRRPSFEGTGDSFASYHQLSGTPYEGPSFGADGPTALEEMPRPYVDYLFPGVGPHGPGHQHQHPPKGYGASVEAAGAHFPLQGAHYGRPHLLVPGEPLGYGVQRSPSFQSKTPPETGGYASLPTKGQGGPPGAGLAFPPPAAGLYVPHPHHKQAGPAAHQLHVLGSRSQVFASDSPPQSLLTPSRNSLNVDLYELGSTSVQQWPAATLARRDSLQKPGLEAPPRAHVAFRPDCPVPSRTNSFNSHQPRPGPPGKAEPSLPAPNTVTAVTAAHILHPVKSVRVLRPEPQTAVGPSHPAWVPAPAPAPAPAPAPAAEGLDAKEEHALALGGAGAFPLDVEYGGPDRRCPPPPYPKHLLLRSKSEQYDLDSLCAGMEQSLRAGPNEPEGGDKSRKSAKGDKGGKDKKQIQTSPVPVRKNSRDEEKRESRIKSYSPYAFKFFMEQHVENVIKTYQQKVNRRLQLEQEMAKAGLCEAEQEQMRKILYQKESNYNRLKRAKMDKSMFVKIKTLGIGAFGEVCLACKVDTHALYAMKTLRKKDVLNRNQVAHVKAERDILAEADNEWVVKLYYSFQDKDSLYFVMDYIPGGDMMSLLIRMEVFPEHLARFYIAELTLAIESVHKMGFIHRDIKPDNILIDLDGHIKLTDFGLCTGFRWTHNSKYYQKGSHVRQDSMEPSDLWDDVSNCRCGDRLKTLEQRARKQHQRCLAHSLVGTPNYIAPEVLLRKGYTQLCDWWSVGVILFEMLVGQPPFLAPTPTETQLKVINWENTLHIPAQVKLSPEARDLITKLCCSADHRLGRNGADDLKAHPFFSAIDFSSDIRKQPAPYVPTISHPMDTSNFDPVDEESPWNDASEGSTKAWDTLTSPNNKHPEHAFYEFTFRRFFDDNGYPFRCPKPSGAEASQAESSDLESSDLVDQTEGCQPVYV
In short: as §1

MYO3b = biological target: T3, MYO3b (Homo sapiens, UniProt Q8WXR4)
T3 construct: purchased Reaction Biology Corp
T3 sequence (Q8WXR4 1-1341): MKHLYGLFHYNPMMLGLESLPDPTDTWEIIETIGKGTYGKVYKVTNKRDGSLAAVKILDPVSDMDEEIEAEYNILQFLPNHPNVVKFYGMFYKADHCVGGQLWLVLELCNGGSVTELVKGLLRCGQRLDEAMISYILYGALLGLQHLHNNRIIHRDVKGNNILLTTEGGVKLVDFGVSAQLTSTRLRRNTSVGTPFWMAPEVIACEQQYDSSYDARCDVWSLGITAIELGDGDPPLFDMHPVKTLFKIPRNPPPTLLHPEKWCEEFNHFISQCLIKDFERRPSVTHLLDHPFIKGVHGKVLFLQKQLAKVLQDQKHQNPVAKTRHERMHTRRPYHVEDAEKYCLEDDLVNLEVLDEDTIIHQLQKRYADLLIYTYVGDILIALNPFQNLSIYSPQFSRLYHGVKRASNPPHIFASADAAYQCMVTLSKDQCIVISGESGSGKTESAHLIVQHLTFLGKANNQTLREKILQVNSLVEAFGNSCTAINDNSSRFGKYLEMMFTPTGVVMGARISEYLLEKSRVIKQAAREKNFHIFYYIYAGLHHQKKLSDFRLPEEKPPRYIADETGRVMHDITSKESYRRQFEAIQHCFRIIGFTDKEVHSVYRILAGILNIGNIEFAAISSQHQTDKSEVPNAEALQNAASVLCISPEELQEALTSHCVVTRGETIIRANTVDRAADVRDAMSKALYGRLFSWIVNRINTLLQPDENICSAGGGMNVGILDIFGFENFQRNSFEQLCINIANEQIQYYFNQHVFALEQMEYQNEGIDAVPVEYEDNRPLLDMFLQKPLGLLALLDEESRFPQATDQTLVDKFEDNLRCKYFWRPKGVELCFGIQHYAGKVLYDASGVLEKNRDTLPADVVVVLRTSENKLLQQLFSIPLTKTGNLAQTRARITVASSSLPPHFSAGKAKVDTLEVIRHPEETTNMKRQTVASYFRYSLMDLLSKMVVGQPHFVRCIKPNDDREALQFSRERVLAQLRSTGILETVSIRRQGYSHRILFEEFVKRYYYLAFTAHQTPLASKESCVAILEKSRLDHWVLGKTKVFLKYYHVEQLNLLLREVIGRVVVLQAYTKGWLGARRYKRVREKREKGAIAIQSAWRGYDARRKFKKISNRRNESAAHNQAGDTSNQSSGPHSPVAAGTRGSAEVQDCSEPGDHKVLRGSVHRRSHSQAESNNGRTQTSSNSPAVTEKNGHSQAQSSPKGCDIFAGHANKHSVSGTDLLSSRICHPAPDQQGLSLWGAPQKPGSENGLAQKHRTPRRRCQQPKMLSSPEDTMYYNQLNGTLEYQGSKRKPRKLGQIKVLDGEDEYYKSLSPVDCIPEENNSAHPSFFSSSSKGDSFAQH
In short: as §1

[1] = read-out: % Enzyme Activity (relative to DMSO controls) AVG
[2] = read-out: % Enzyme Activity (relative to DMSO controls) Data 1
[3] = read-out: % Enzyme Activity (relative to DMSO controls) Data 2

T1 sequence (Q6P5Z2 whole entry): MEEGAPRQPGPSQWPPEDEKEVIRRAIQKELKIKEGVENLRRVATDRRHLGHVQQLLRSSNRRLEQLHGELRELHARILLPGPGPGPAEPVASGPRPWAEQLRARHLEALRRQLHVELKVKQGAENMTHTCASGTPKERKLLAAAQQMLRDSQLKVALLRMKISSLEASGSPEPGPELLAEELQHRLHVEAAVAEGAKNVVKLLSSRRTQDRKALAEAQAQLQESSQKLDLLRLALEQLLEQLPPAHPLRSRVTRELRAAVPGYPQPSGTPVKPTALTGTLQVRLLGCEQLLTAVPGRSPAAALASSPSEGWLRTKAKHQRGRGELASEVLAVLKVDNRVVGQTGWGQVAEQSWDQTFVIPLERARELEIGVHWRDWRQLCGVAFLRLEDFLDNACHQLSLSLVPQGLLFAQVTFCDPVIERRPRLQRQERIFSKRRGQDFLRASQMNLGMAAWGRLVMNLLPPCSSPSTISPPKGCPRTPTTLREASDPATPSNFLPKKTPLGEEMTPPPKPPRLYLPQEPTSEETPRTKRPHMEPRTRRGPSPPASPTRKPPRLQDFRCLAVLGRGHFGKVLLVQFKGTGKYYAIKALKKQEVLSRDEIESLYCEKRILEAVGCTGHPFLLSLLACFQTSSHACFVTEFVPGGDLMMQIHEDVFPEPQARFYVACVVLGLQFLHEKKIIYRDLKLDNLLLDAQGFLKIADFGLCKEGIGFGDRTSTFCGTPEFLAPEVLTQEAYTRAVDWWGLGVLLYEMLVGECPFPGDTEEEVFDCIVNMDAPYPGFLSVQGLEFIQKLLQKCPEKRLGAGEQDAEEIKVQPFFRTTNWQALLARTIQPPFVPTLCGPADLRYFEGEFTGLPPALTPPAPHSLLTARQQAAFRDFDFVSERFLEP

For CC(C)(C)C(=O)N1N=CC[C@H]1c1ccccc1 [GSK′963], the remaining activity at 10 µM (PKN3/PRK3; [1]) was 94%, the remaining activity at 10 µM (PKN3/PRK3; [2]) was 92.9% and the remaining activity at 10 µM (PKN3/PRK3; [3]) was 95.1%. For the same compound, the remaining activity at 10 µM (LATS2; [1]) was 117%, the remaining activity at 10 µM (LATS2; [2]) was 112% and the remaining activity at 10 µM (LATS2; [3]) was 121%. The remaining activity at 10 µM (MYO3b; [1]) was 111%, the remaining activity at 10 µM (MYO3b; [2]) was 111% and the remaining activity at 10 µM (MYO3b; [3]) was 111%.
